The record followed here is EP2062893A1, “Fused imidazoles for cancer treatment” (Bayer Schering Pharma AG, priority 2007, dated 2009).

What all share (assay type): cell-based
In test [1] the test system is phosphorylated Akt protein. As to the kind of experiment: Cellular PI3K / Akt pathway assay (phospho-Akt Ser473 sandwich ELISA). To be noted: Homo sapiens; MCF7 cells, ß-Heregulin (20ng/ml) stimulation, 48h incubation. Summed up:
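MCF7 cells, serum-starved in 0.1% charcoal-treated FCS medium, were treated with compound alongside 20 ng/ml ß-heregulin stimulation (0.5% DMSO controls). Lysates analysed by phospho-Akt1 Ser473 sandwich ELISA (overnight capture at 4°C, Akt1 detection antibody, HRP/TMB), absorbance at 450 nm.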

The subject of another test is phosphorylated GSK3. Put plainly: Cellular pGSK3 assay (phospho-GSK3 Ser9 sandwich ELISA). As to conditions: Homo sapiens; MCF7 cells, 48h incubation, IC50 of pGSK3 inhibition. Summed up:
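MCF7 cells treated 48 h at 37 °C with compound dilutions from 10 mM DMSO stocks, then lysed. Phospho-GSK3 Ser9 captured in sandwich ELISA, detected with HRP secondary and TMB, absorbance 450 nm; IC50 of pGSK3 inhibition calculated.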

The subject of a further test is OvCAR3 cells. Put plainly: Cellular proliferation / Cytotoxicity assay (Alamar Blue / Resazurin cell viability). As to conditions: Homo sapiens, OVCAR-3, 48h incubation, read-out: Anti-proliferative / Cytotoxic activity (OvCAR3 cells). As for the experimental part: Wells containing untreated control cells were filled with 200 µl DMEM (Dulbecco's Modified Eagle Medium) containing 0.5vol% v:v DMSO. The cells are then incubated with the substances for 48h at 37°C in a humidified atmosphere containing 5vol% CO2. To determine the viability of the cells, 20 µl of a Resazurin solution (90mg / I) are added. […] Viabilities are expressed as % values.
On the technique in general: Alamar Blue is a resazurin reagent that responds to reducing activity.

Each structure is given as a SMILES string.

For the molecule `COc1cccn2c(-c3ccccc3)c(-c3ccc(CN4CCC(c5n[nH]c(-c6ccccn6)n5)CC4)cc3)nc12` [Example 13, 8-methoxy-3-phenyl-2-(4-{[4-(5-pyridin-2-yl-1,2,4-triazol-3-yl)piperidin-1-yl]methyl}phenyl)imidazo[1,2-a]pyridine], the IC50 in test [1] is below 1 µM; in the test on phosphorylated GSK3, 1 to 10 µM; in the test on OvCAR3 cells, below 10 µM.
As for `Fc1ccc(-c2c(-c3ccc(CN4CCC(c5n[nH]c(-c6ccccn6)n5)CC4)cc3)nc3ncccn23)cc1` [Example 18, 3-(4-fluorophenyl)-2-(4-{[4-(5-pyridin-2-yl-1,2,4-triazol-3-yl)piperidin-1-yl]methyl}phenyl)imidazo[1,2-a]pyrimidine], the IC50 in test [1] was 1 to 10 µM; in the test on phosphorylated GSK3, 1 to 10 µM; in the test with OvCAR3 cells, below 10 µM.
On to `Brc1cnc2nc(-c3ccc(CN4CCC(c5n[nH]c(-c6ccccn6)n5)CC4)cc3)c(-c3ccccc3)n2c1` [Example 12, 6-bromo-3-phenyl-2-(4-{[4-(5-pyridin-2-yl-1,2,4-triazol-3-yl)piperidin-1-yl]methyl}phenyl)imidazo[1,2-a]pyrimidine], for which the IC50 in test [1] was below 1 µM; in the test on phosphorylated GSK3 it was below 1 µM; in the test on OvCAR3 cells, below 10 µM.
For the molecule `Ic1cnc2nc(-c3ccc(CN4CCC(c5n[nH]c(-c6ccccn6)n5)CC4)cc3)c(-c3ccccc3)n2c1` [Example 23, 6-iodo-3-phenyl-2-(4-{[4-(5-pyridin-2-yl-1,2,4-triazol-3-yl)piperidin-1-yl]methyl}phenyl)imidazo[1,2-a]pyrimidine], the IC50 was below 1 µM in test [1], 1 to 10 µM in the test on phosphorylated GSK3 and below 10 µM in the test on OvCAR3 cells.
Taken in the same sequence, the figures for `Fc1ccc2nc(-c3ccc(CN4CCC(c5n[nH]c(-c6ccccn6)n5)CC4)cc3)c(-c3ccccc3)n2c1` [Example 22, 6-fluoro-3-phenyl-2-(4-{[4-(5-pyridin-2-yl-1,2,4-triazol-3-yl)piperidin-1-yl]methyl}phenyl)imidazo[1,2-a]pyridine] were below 1 µM, 1 to 10 µM and below 10 µM.
